Data published in patent US7772241B2, “Variolin derivatives and their use as antitumor agents” (Pharma Mar S.A., priority 2001, dated 2010).

How the values were obtained:
SK-MEL-28 = assay: Inhibition of cells growth by colorimetric (SRB) assay, SK-MEL-28; settings: for GI50 / CC50: Homo sapiens, SK-MEL-28, 48 h; for GI50: read-out: GI50 MEL-28, SRB assay, 48 hours exposure; for CC50: read-out: LC50 MEL-28, SRB assay, 48 hours exposure; for TGI MEL-28: SRB assay, 48 hours exposure
In short: (§1)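 Human tumour cells seeded at 5×10^3/well in RPMI 1640 10% FBS, attached 18 h, then exposed 48 h to samples at 10 to 10^−8 μg/ml in DMSO/EtOH/PBS (0.5:0.5:99). Growth read by SRB staining after TCA fixation, OD 490 nm, triplicate wells; GI, TGI and LC derived.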

IGROV-ET = assay: Inhibition of cells growth by colorimetric (SRB) assay, IGROV-ET; settings: for GI50 / CC50: Homo sapiens, 48 h; for GI50: read-out: GI50 IGROV-ET, SRB assay, 48 hours exposure; for CC50: read-out: LC50 IGROV-ET, SRB assay, 48 hours exposure; for TGI IGROV-ET: SRB assay, 48 hours exposure
In short: as §1

IGROV-1 = assay: Inhibition of cells growth by colorimetric (SRB) assay, IGROV-1; settings: for GI50 / CC50: Homo sapiens, IGROV-1, 48 h; for GI50: read-out: GI50 IGROV, SRB assay, 48 hours exposure; for CC50: read-out: LC50 IGROV, SRB assay, 48 hours exposure; for TGI IGROV: SRB assay, 48 hours exposure
In short: as §1

[1] = Inhibition of cells growth by colorimetric (SRB) assay, HMEC1; settings: human, HMEC1 cells, LC50 H-MEC-1, SRB assay, 48 hours exposure
HMEC1 = assay: as above; settings: for GI50: Homo sapiens, HMEC-1, 48 h, read-out: GI50 H-MEC-1, SRB assay, 48 hours exposure; for TGI H-MEC-1: SRB assay, 48 hours exposure, in M (unit assumed)
LoVo-Dox = assay: Inhibition of cells growth by colorimetric (SRB) assay, LoVo-Dox; settings: for GI50 / CC50: Homo sapiens, 48 h; for GI50: read-out: GI50 LOVO-DOX, SRB assay, 48 hours exposure; for CC50: read-out: LC50 LOVO-DOX, SRB assay, 48 hours exposure; for TGI LOVO-DOX: SRB assay, 48 hours exposure
In short: as §1

LoVo = assay: Inhibition of cells growth by colorimetric (SRB) assay, LoVo; settings: for GI50 / CC50: Homo sapiens, LoVo, 48 h; for GI50: read-out: GI50 LOVO, SRB assay, 48 hours exposure; for CC50: read-out: LC50 LOVO, SRB assay, 48 hours exposure; for TGI LOVO: SRB assay, 48 hours exposure
In short: as §1

PANC-1 = assay: Inhibition of cells growth by colorimetric (SRB) assay, PANC-1; settings: for GI50 / CC50: Homo sapiens, PANC-1, 48 h; for GI50: read-out: GI50 PANC-1, SRB assay, 48 hours exposure; for CC50: read-out: LC50 PANC-1, SRB assay, 48 hours exposure; for TGI PANC-1: SRB assay, 48 hours exposure
In short: as §1

HT-29 = assay: Inhibition of cells growth by colorimetric (SRB) assay, HT-29; settings: for GI50 / CC50: Homo sapiens, HT-29, 48 h; for GI50: read-out: GI50 HT-29, SRB assay, 48 hours exposure; for CC50: read-out: LC50 HT-29, SRB assay, 48 hours exposure; for TGI HT-29: SRB assay, 48 hours exposure
In short: as §1

K-562 = assay: Inhibition of cells growth by colorimetric (SRB) assay, K-562; settings: for GI50 / CC50: Homo sapiens, K562, 48 h; for GI50: read-out: GI50 K-562, SRB assay, 48 hours exposure; for CC50: read-out: LC50 K-562, SRB assay, 48 hours exposure; for TGI K-562: SRB assay, 48 hours exposure
In short: as §1

LNCaP = assay: Inhibition of cells growth by colorimetric (SRB) assay, LNCaP; settings: for GI50 / CC50: Homo sapiens, LNCaP, 48 h; for GI50: read-out: GI50 LN-caP, SRB assay, 48 hours exposure; for CC50: read-out: LC50 LN-caP, SRB assay, 48 hours exposure; for TGI LN-caP: SRB assay, 48 hours exposure
In short: as §1

A-549 = assay: Inhibition of cells growth by colorimetric (SRB) assay, A-549; settings: for GI50 / CC50: Homo sapiens, A549, 48 h; for GI50: read-out: GI50 A-549, SRB assay, 48 hours exposure; for CC50: read-out: LC50 A-549, SRB assay, 48 hours exposure; for TGI A-549: SRB assay, 48 hours exposure
In short: as §1

SK-BR-3 = assay: Inhibition of cells growth by colorimetric (SRB) assay, SK-BR-3; settings: for GI50 / CC50: Homo sapiens, SK-BR-3, 48 h; for GI50: read-out: GI50 SK-BR-3, SRB assay, 48 hours exposure; for CC50: read-out: LC50 SK-BR-3, SRB assay, 48 hours exposure; for TGI SK-BR-3: SRB assay, 48 hours exposure
In short: as §1

DU-145 = assay: Inhibition of cells growth by colorimetric (SRB) assay, DU-145; settings: for GI50 / CC50: Homo sapiens, DU-145, 48 h; for GI50: read-out: GI50 DU-145, SRB assay, 48 hours exposure; for CC50: read-out: LC50 DU-145, SRB assay, 48 hours exposure; for TGI DU-145: SRB assay, 48 hours exposure
In short: as §1

SK-OV-3 = assay: Inhibition of cells growth by colorimetric (SRB) assay, SK-OV-3; settings: for GI50 / CC50: Homo sapiens, SK-OV-3, 48 h; for GI50: read-out: GI50 SKOV-3, SRB assay, 48 hours exposure; for CC50: read-out: LC50 SKOV-3, SRB assay, 48 hours exposure; for TGI SKOV-3: SRB assay, 48 hours exposure
In short: as §1

COc1ccc2nc3c(cc2c1)c(-c1ccnc(SC)n1)c1ccnc(N)n13 [Compound 18b]
GI50 (SK-MEL-28): ≥ 25.7 µM
CC50 (SK-MEL-28): ≥ 25.7 µM
TGI MEL-28 (SK-MEL-28): 2.57E−05
GI50 (IGROV-ET): ≥ 25.7 µM
CC50 (IGROV-ET): ≥ 25.7 µM
TGI IGROV-ET (IGROV-ET): 2.57E−05
GI50 (IGROV-1): 20.8 µM
CC50 (IGROV-1): ≥ 25.7 µM
TGI IGROV (IGROV-1): 2.57E−05
CC50 at 48 h [1]: 23.3 µM
GI50 (HMEC1): 12.2 µM
TGI H-MEC-1 (HMEC1): 1.69E−05
GI50 (LoVo-Dox): ≥ 25.7 µM
CC50 (LoVo-Dox): ≥ 25.7 µM
TGI LOVO-DOX (LoVo-Dox): 2.57E−05
GI50 (LoVo): ≥ 25.7 µM
CC50 (LoVo): ≥ 25.7 µM
TGI LOVO (LoVo): 2.57E−05
GI50 (PANC-1): 10.3 µM
CC50 (PANC-1): ≥ 25.7 µM
TGI PANC-1 (PANC-1): 2.57E−05
GI50 (HT-29): ≥ 25.7 µM
CC50 (HT-29): ≥ 25.7 µM
TGI HT-29 (HT-29): 2.57E−05
GI50 (K-562): ≥ 25.7 µM
CC50 (K-562): ≥ 25.7 µM
TGI K-562 (K-562): 2.57E−05
GI50 (LNCaP): 16.6 µM
CC50 (LNCaP): ≥ 25.7 µM
TGI LN-caP (LNCaP): 2.57E−05
GI50 (A-549): ≥ 25.7 µM
CC50 (A-549): ≥ 25.7 µM
TGI A-549 (A-549): 2.57E−05
GI50 (SK-BR-3): ≥ 25.7 µM
CC50 (SK-BR-3): ≥ 25.7 µM
TGI SK-BR-3 (SK-BR-3): 2.57E−05
GI50 (DU-145): ≥ 25.7 µM
CC50 (DU-145): ≥ 25.7 µM
TGI DU-145 (DU-145): 2.57E−05
GI50 (SK-OV-3): ≥ 25.7 µM
CC50 (SK-OV-3): ≥ 25.7 µM
TGI SKOV-3 (SK-OV-3): 2.57E−05

Nc1nccc(-c2c3cc(Cl)cnc3n3c(N)nccc23)n1 [Compound 49]
GI50 (SK-MEL-28): 6.35 µM
CC50 (SK-MEL-28): 32.1 µM
TGI MEL-28 (SK-MEL-28): 1.43E−05
GI50 (IGROV-ET): 4.23 µM
CC50 (IGROV-ET): 32.1 µM
TGI IGROV-ET (IGROV-ET): 1.20E−05
GI50 (IGROV-1): 4.68 µM
CC50 (IGROV-1): 29.3 µM
TGI IGROV (IGROV-1): 1.17E−05
CC50 at 48 h [1]: 8.73 µM
GI50 (HMEC1): 0.456 µM
TGI H-MEC-1 (HMEC1): 4.59E−06
GI50 (LoVo-Dox): 2.11 µM
CC50 (LoVo-Dox): 27.6 µM
TGI LOVO-DOX (LoVo-Dox): 7.86E−06
GI50 (LoVo): 2.37 µM
CC50 (LoVo): 32.1 µM
TGI LOVO (LoVo): 1.16E−05
GI50 (PANC-1): 10.7 µM
CC50 (PANC-1): 32.1 µM
TGI PANC-1 (PANC-1): 3.21E−05
GI50 (HT-29): 12 µM
CC50 (HT-29): 32.1 µM
TGI HT-29 (HT-29): 3.21E−05
GI50 (K-562): 13.9 µM
CC50 (K-562): 32.1 µM
TGI K-562 (K-562): 2.77E−05
GI50 (LNCaP): 1.26 µM
CC50 (LNCaP): 19.5 µM
TGI LN-caP (LNCaP): 4.30E−06
GI50 (A-549): 2.11 µM
CC50 (A-549): 32.1 µM
TGI A-549 (A-549): 9.21E−06
GI50 (SK-BR-3): 7.19 µM
CC50 (SK-BR-3): 32.1 µM
TGI SK-BR-3 (SK-BR-3): 1.86E−05
GI50 (DU-145): 5.33 µM
CC50 (DU-145): 32.1 µM
TGI DU-145 (DU-145): 1.38E−05
GI50 (SK-OV-3): 5.42 µM
CC50 (SK-OV-3): 32.1 µM
TGI SKOV-3 (SK-OV-3): 1.50E−05

Nc1nccc(-c2c3cc(F)c(Cl)nc3n3c(N)nccc23)n1 [Compound 50]
GI50 (SK-MEL-28): ≥ 30.3 µM
CC50 (SK-MEL-28): ≥ 30.3 µM
TGI MEL-28 (SK-MEL-28): 3.03E−05
GI50 (IGROV-ET): 12.9 µM
CC50 (IGROV-ET): ≥ 30.3 µM
TGI IGROV-ET (IGROV-ET): 3.03E−05
GI50 (IGROV-1): 20.3 µM
CC50 (IGROV-1): ≥ 30.3 µM
TGI IGROV (IGROV-1): 3.03E−05
CC50 at 48 h [1]: ≥ 30.3 µM
GI50 (HMEC1): 8.01 µM
TGI H-MEC-1 (HMEC1): 2.44E−05
GI50 (LoVo-Dox): 12.6 µM
CC50 (LoVo-Dox): ≥ 30.3 µM
TGI LOVO-DOX (LoVo-Dox): 3.03E−05
GI50 (LoVo): 12 µM
CC50 (LoVo): ≥ 30.3 µM
TGI LOVO (LoVo): 3.03E−05
GI50 (PANC-1): ≥ 30.3 µM
CC50 (PANC-1): ≥ 30.3 µM
TGI PANC-1 (PANC-1): 3.03E−05
GI50 (HT-29): ≥ 30.3 µM
CC50 (HT-29): ≥ 30.3 µM
TGI HT-29 (HT-29): 3.03E−05
GI50 (K-562): ≥ 30.3 µM
CC50 (K-562): ≥ 30.3 µM
TGI K-562 (K-562): 3.03E−05
GI50 (LNCaP): 0.886 µM
CC50 (LNCaP): ≥ 30.3 µM
TGI LN-caP (LNCaP): 1.88E−06
GI50 (A-549): 5.25 µM
CC50 (A-549): ≥ 30.3 µM
TGI A-549 (A-549): 3.03E−05
GI50 (SK-BR-3): 11.6 µM
CC50 (SK-BR-3): ≥ 30.3 µM
TGI SK-BR-3 (SK-BR-3): 3.03E−05
GI50 (DU-145): 16.5 µM
CC50 (DU-145): ≥ 30.3 µM
TGI DU-145 (DU-145): 3.03E−05
GI50 (SK-OV-3): 15.8 µM
CC50 (SK-OV-3): ≥ 30.3 µM
TGI SKOV-3 (SK-OV-3): 3.03E−05
